Measured values from patent US10183011B2, “Anti-depression compounds” (Board of Regents of the University of Texas System, priority 2009, dated 2019).
Entries after “also recorded” stand apart in the source; their conditions may differ.

Assays:
[1] = tested on: newborn hippocampal neurons; assay: 30 day BrdU pulse-chase survival assay of newborn hippocampal neurons, dose response; format: in vivo, mouse (C57 Bl/6); settings: for increase in survival of newborn neurons: 5 mg/kg/day i.p. for 30 days; for neuroprotective efficacy (increase in survival of newborn neurons): 10 mg/kg/day i.p. for 30 days; for ceiling of efficacy (CoE), increase in survival: 20 or 40 mg/kg/day i.p. for 30 days
Procedure: FIG. 28. Neuroprotective efficacy of P7C3, P7C3A20 and Dimebon for newborn neurons in the adult hippocampus. Test compounds were evaluated by dose response assay for their ability to block normal apoptotic cell death of newborn neural precursor cells in the adult dentate gyrus. […] P7C3 is intermediate in both measures. 6 animals were tested per group. Dosing is expressed as total mg/day, and compounds were administered intraperitoneally in divided doses twice daily. Data are expressed as mean±SEM. Values for P7C3 and P7C3A20 were compared to those of vehicle (VEH), and values for Dimebon were compared to those of saline (SAL).
In order to more carefully compare the neuroprotective efficacy of these compounds in abetting hippocampal neurogenesis, we conducted dose-response studies in a 30 day BrdU pulse-chase survival assay (FIG. 28). Briefly, newborn cells were labeled with a single intraperitoneal (i.p.) injection of BrdU (150 mg/kg), followed by daily treatment with the three test compounds beginning the following day. After 30 days of compound administration, mice were transcardially perfused with 4% paraformaldehyde, brains were dissected, and immunohistochemical detection of BrdU followed by standard microscopic imaging and normalization for dentate gyrus volume was used to quantify the number of surviving cells.
Because both social activity and voluntary exercise enhance hippocampal neurogenesis, mice were individually housed without access to running wheels throughout the entire procedure, beginning one week prior to bromodeoxyuridine (BrdU, Sigma-Aldrich) labeling of newborn cells. Throughout the study, mice had ad libitum access to food and water. BrdU was injected intraperitoneally at 150 mg/kg i.p., and 24 hours later administration of test compounds or vehicle was initiated. P7C3 and P7C3A20 were dissolved in 5% dextrose (pH 7.0) with 2.5% DMSO and 10% Cremaphor EL (Sigma, C5135). Dimebon was dissolved in normal saline. Compounds were compared to their respective controls, and were tested at 2.5, 5, 10 and 20 mg/kg twice daily (i.p.) for 30 days. The injection site was alternated between right and left sides. Each group consisted of six 12-week-old adult male C57 Bl/6 mice. Animals were monitored daily for general health and weight loss. Cage changes were performed per routine scheduling. After 30 days of compound administration, mice were sacrificed by transcardial perfusion with 4% paraformaldehyde at pH 7.4, and their brains were processed for immunohistochemical detection of incorporated BrdU in the dentate gyrus. Dissected brains were immersed in 4% paraformaldehyde overnight at 4 degrees Celsius, then cryoprotected in sucrose before being sectioned with a Leica SM2000R sliding microtome coronally into […] thick free-floating sections. Unmasking of BrdU antigen was achieved through incubating tissue sections for two hours in 50% formamide/2×SSC at 65 degrees Celsius, followed by five minute wash in 2×SSC and subsequent incubation for thirty minutes in 2M HCl at 37 degrees Celsius. Sections were processed for immunohistochemical staining with mouse monoclonal anti-BrdU (1:100, Roche). Diaminobenzidine was used as a chromagen, and tissue was counter-stained with hematoxylin to aid in visualization of the neuroanatomy. Images were analyzed with a Nikon Eclipse 90i motorized research microscope with Plan Apo lenses coupled with Metamorph Image Acquisition software (Nikon). Quantification of all staining was done blind to treatment group. The number of BrdU+ cells in the entire dentate gyrus was quantified by counting BrdU+ cells within the dentate gyrus in every fifth section throughout the entire hippocampus and then normalizing for dentate gyrus volume.

[2] = tested on: C. elegans; assay: MPP+-induced mobility deficits in C. elegans; format: in vivo; settings: for locomotion (distance traveled by the head in 10 seconds divided by body length): 10 μM with MPP+, VEH 16.2±0.49, MPP+ alone 7.2±0.68; for mobility protected, relative to normal: 10 μM, 5 mM MPP+ for 32 hours
Procedure: FIG. 32. Protective efficacy of P7C3 and P7C3A20 for MPP^+-induced mobility deficits in C. elegans. The top panels show worms with the head identified by a green dot. […] Tracking is visualized as starting with blue color and progressing to white by the completion of 10 seconds. The green dot was used to determine locomotion, defined as the distance traveled by the head of the worm in 10 seconds divided by body length. Scale bars represent 70 μM. […] When worms were treated with MPP^+, locomotion was reduced more than 50% (7.2±0.68; n=31, p<0.0001). […] P7C3A20 protected mobility to almost 80% of normal (12.8±0.81; n=34, *p<0.01), and 10 μM P7C3 protected almost 60% (m.i. of 9.6±0.72; n=28, *p<0.05). […] (7.7±1.0; n=30). Experiments were performed in triplicate and data are expressed as mean±SEM.
As a behavioral measure of toxicity, worm mobility was assessed 32 hours after MPP^+-exposure. To quantify worm locomotion, video representations were recorded for 10 seconds at 4× magnification using a Nikon Eclipse 80i microscope. Each video segment consisted of 160 frames, and the head of each worm (10-20 worms per group, repeated in triplicate) was manually tracked in each frame using Imera software. The body length of each worm was also measured by Imera software. The ratio of distance traveled to body length was used to determine the movement index, defined as locomotion, as previously established (Wang J., et al. (2009) An ALS-linked mutant SOD1 produces a locomotor defect associated with aggregation and synaptic dysfunction when expressed in neurons of Caenorhabditis elegans. PLoS Genetics e10003350). […] Co-incubation of MPP^+-exposed worms with 10 μM P7C3A20 conferred 80% preservation of locomotion, while 10 μM P7C3 protected to about 60% of normal levels.
A video-based assay was used to assess the swim speed, distance traveled and length of worms. After exposure to MPP^+ for 32 hrs, worms were washed, resuspended in M9 buffer (500 ul) and transferred to microscope slides. A 10 second movie was recorded at 4× magnification using a Nikon Eclipse 80i microscope. Each movie consisted of 160 frames and the distance traveled by the head of each worm was manually tracked in each frame using Imera software. This software was also used to measure the length of the worm body. The ratio of movement distance to body length was used as a movement index, and defined as locomotion per standard protocols.

SMILES	increase in survival of newborn neurons [1]	neuroprotective efficacy (increase in survival of newborn neurons) [1]	ceiling of efficacy (CoE), increase in survival [1]	locomotion (distance traveled by the head in 10 seconds divided by body length) [2]	mobility protected, relative to normal [2]
Cc1ccc2c(c1)c1c(n2CCc2ccc(C)nc2)CCN(C)C1 [Dimebon, 2,3,4,5-Tetrahydro-2,8-dimethyl-5-(2-(6-methyl-3-pyridyl)ethyl)-1H-pyrido(4,3-b)indole, reference compound]	neither P7C3 nor Dimebon exhibited any effect	15%	≈ 30%	7.7±1.0	offered no protective efficacy; also recorded: did not offer any protection
COc1cccc(NCC(F)Cn2c3ccc(Br)cc3c3cc(Br)ccc32)c1 (centres unmarked) [Example P7C3A20, N-(3-(3,6-dibromo-9H-carbazol-9-yl)-2-fluoropropyl)-3-methoxyaniline]	~100%	about 175%	≈ 230%	12.8±0.81	80%
OC(CNc1ccccc1)Cn1c2ccc(Br)cc2c2cc(Br)ccc21 (centres unmarked) [Example P7C3]	neither P7C3 nor Dimebon exhibited any effect	65%	≈ 130%	9.6±0.72	–
